Test results reported in US4762823A, “Nucleosides of 5-monofluoromethyluracil and 5-difluoromethyluracil” (Sloan-Kettering Institute for Cancer Research, priority 1985, dated 1988).

Legend:
[1] = neutral aqueous media; Mertes, et al.; cited from earlier work
herpes simplex = settings: cited from earlier work
many tumor systems = settings: Heidelberger, 1965; 1970; cited from earlier work
[2] = cited from earlier work
HSV-1 = experiment: Antiherpes activity, inhibition of cytopathic effect (CPE), HSV-1; format: cell-based; settings: Human alphaherpesvirus 1, 48 h, human foreskin monolayers, mean IC of high and low virus inocula, CPE score lowered by 10 scoring units vs control, 2 days, read-out: Inhibitory Concentration (μM) HSV-1
Procedure: (§1) Each of the nucleosides was initially dissolved in a diluent containing 60% propylene glycol and 10% EtOH; subsequent dilutions used maintenance culture medium. Agents were assessed at tenfold dilutions with final concentrations ranging from 10,000 to 0.01 micromolar. Confluent human foreskin monolayers were maintained in 96-well microtiter plates using Eagle's Minimal Essential Medium supplemented with 2% fetal bovine serum, antibiotics and glutamine using standard methods.^40 Prior to virus inoculation, the medium was removed from each well and replaced with 100 μL of agent diluted in maintenance medium with differing concentrations in each horizontal row, beginning with the highest concentration in the upper row, with subsequent tenfold dilutions in the next rows and the last (control) row fed with agent-free maintenance medium. The virus inocula were then added, suspended in 100 μL of […] medium. A high-dose inoculum which induced nearly confluent (100%) cytopathic effect (CPE) two days later was added to the first five vertical columns of the plate (1-5) and, similarly, a low-dose inoculum inducing approximately 50% CPE in each well two days later was added to the next five vertical columns (6-10). To the last two columns, virus-free medium was added to serve as uninfected control wells in order to assess direct cellular cytotoxicity at each agent dilution. The plates were then incubated at 36.5° C. in 5% CO2 in air for two days, at which time they were read. The cytopathology of each well was read using an inverted microscope and scored from 0 to 4 (0=no CPE and 4=>95% CPE); for marginal or equivocal readings a+ or - is affixed to each score. […] The mean score of each five wells in a row receiving a given agent dilution and virus inoculum was then calculated and compared with an appropriate control row receiving no agent. […] When the value fell between two rows, simple arithmetic interpolation was done to calculate the agent concentrate at the point on a slope between the mean scores in the rows above and below this point. The IC values of each agent using the high and low virus inocula were then averaged yielding a final mean IC which was expressed as a micromolar drug concentration.

HSV-2 = experiment: Antiherpes activity, inhibition of cytopathic effect (CPE), HSV-2; format: cell-based; settings: Human alphaherpesvirus 2, 48 h, human foreskin monolayers, mean IC of high and low virus inocula, CPE score lowered by 10 scoring units vs control, 2 days, read-out: Inhibitory Concentration (μM) HSV-2
Procedure: as §1

[3] = Direct cellular cytotoxicity in uninfected control wells; format: cell-based, human; settings: foreskin cell monolayers; uninfected human foreskin monolayers; tenfold dilutions; 2 days; read-out: Toxic Concentration
Procedure: as §1

[4] = tested on: human foreskin monolayers; experiment: as above; format: cell-based; settings: statement in words on Table 1
Procedure: as §1

herpes = experiment: Antiherpes activity; format: cell-based; settings: statement in words on Table 1
Procedure: Each of the nucleosides was initially dissolved in a diluent containing 60% propylene glycol and 10% EtOH; subsequent dilutions used maintenance culture medium. Agents were assessed at tenfold dilutions with final concentrations ranging from 10,000 to 0.01 micromolar. […] The plates were then incubated at 36.5° C. in 5% CO2 in air for two days, at which time they were read. The cytopathology of each well was read using an inverted microscope and scored from 0 to 4 (0=no CPE and 4=>95% CPE); for marginal or equivocal readings a+ or - is affixed to each score. […] The mean score of each five wells in a row receiving a given agent dilution and virus inoculum was then calculated and compared with an appropriate control row receiving no agent. […] The IC values of each agent using the high and low virus inocula were then averaged yielding a final mean IC which was expressed as a micromolar drug concentration.

Row | SMILES | IC (CPE score lowered by 10 units) (HSV-1) [µM] | IC (CPE score lowered by 10 units) (HSV-2) [µM] | MCC at 48 h [3] [mM] | further results
1 | O=c1[nH]cc(C(F)F)c(=O)[nH]1 [5-Difluoromethyluracil] | – | – | – | lability [1]: extremely labile in neutral aqueous media
2 | O=c1[nH]c(=O)n([C@H]2C[C@H](O)[C@@H](CO)O2)cc1C(F)(F)F [F3 TDR, 1-(2'-deoxy-β-D-erythropentofuranosyl)-5-trifluoromethyluracil] | – | – | – | activity against herpes simplex (herpes simplex; Heidelberger, 1965, 1970): has shown activity; antiherpetic (reported) (herpes simplex; reported): antiherpetic; activity against many tumor systems (many tumor systems): has shown activity; cytotoxic (reported) [2]: very cytotoxic
3 | Cc1cn([C@@H]2O[C@H](CO)[C@@H](O)[C@@H]2F)c(=O)[nH]c1=O [FMAU, 1-(2-Deoxy-2-fluoro-β-D-arabinofuranosyl)thymine, reference compound] | 0.1 | 0.05 | 1 | –
4 | CC(=O)OC[C@H]1O[C@@H](n2cc(CF)c(=O)[nH]c2=O)[C@@H](F)[C@@H]1OC(C)=O [R=CH2 F, R^1=Ac, X=F, 1-(3,5-Di-0-acetyl-2-deoxy-2-fluoro-β-D-arabinofuranosyl)-5-monofluoromethyluracil] | 2.46 | 5.19 | 1 | –
5 | CC(=O)OC[C@H]1O[C@@H](n2cc(CF)c(=O)[nH]c2=O)C[C@@H]1OC(C)=O [R=CH2 F, R^1=Ac, X=H, 1-(3',5'-di-0-acetyl-β-D-erythropentofuranosyl)-5-monofluoromethyluracil] | > 100 | > 100 | 1 | –
6 | O=c1[nH]c(=O)n([C@@H]2O[C@H](CO)[C@@H](O)[C@@H]2F)cc1CF [R=CH2 F, R^1=H, X=F, 1-(2'-Deoxy-2'-fluoro-β-D-arabinofuranosyl)-5-monofluoromethyluracil] | 0.21 | 0.18 | 1 | –
7 | O=c1[nH]c(=O)n([C@H]2C[C@H](O)[C@@H](CO)O2)cc1CF [R=CH2 F, R^1=H, X=H, 2'-deoxy-5-monofluoromethyluridine] | > 100 | > 100 | 1 | –
8 | CC(=O)OC[C@H]1O[C@@H](n2cc(C)c(=O)[nH]c2=O)[C@@H](F)[C@@H]1OC(C)=O [R=CH3, R^1=Ac, X=F, 1-(3,5-di-0-acetyl-2-deoxy-2-fluoro-β-D-arabinofuranosyl)thymine, reference compound] | 0.44 | 1.23 | 1 | –
9 | CC(=O)OC[C@H]1O[C@@H](n2cc(C(F)F)c(=O)[nH]c2=O)[C@@H](F)[C@@H]1OC(C)=O [R=CHF2, R^1=Ac, X=F] | 0.71 | 2.16 | 1 | –
10 | CC(=O)OC[C@H]1O[C@@H](n2cc(C(F)F)c(=O)[nH]c2=O)C[C@@H]1OC(C)=O [R=CHF2, R^1=Ac, X=H, 1-(3',5'-Di-0-acetyl-2'-deoxy-β-D-erythropentofuranosyl)-5-difluoromethyluracil] | 17 | 25.1 | 1 | cytotoxicity [4]: without serious cytotoxicity; antiherpes activity (herpes): very potent antiherpes activity
11 | O=c1[nH]c(=O)n([C@@H]2O[C@H](CO)[C@@H](O)[C@@H]2F)cc1C(F)F [R=CHF2, R^1=H, X=F, 1-(2'-Deoxy-2'-fluoro-β-D-arabinofuranosyl)-5-difluoromethyluracil] | 0.48 | 1.04 | 1 | –
12 | O=c1[nH]c(=O)n([C@H]2C[C@H](O)[C@@H](CO)O2)cc1C(F)F [R=CHF2, R^1=H, X=H, 2'-Deoxy-5-difluoromethyluridine] | 1.4 | 1.66 | 1 | cytotoxicity [4]: without serious cytotoxicity; antiherpes activity (herpes): very potent antiherpes activity
